# In patent US20160024114A1, “MACROCYCLIC RIP2 KINASE INHIBITORS” (ONCODESIGN S.A, priority 2013, published 2016):
# Target: RIP2 recombinant protein (Homo sapiens, UniProt O43353)
# Test: radiometric protein kinase assay (33PanQinase Activity Assay), in vitro peptide-based kinase assay
# Format: biochemical
# Details: 1 h; compound at 0.1 μM
# Protocol: The inhibition of RIP2 kinase was assessed using RIP2 recombinant protein in an in vitro peptide-based kinase assay.
# A radiometric protein kinase assay (^33PanQinase® (^33PanQinase Activity Assay) is used for measuring the kinase activity. All assays are performed in 96-well FlashPlates™ from Perkin Elmer in a 50 μl reaction volume. The reaction cocktail is pipetted in 4 steps in the following order:
# 10 μl of non-radioactive ATP solution (in H2O)
# 25 μl of assay buffer/[γ-^33P]-ATP mixture
# 5 μl of test sample in 10% DMSO
# 10 μl of enzyme/substrate mixture
# The assay for RIP2 contains 70 mM HEPES-NaOH pH 7.5, 3 mM MgCl2, 3 mM MnCl2, 3 μM Na-orthovanadate, 1.2 mM DTT, 50 μg/ml PEG20000, ATP (3.0 μM), [γ-^33P]-ATP (approx. 5×10^05 cpm per well), protein kinase RIP2 (15.7 nM) and substrate (RBER-Chktide), 2.0 μg/50 μl). The reaction cocktails were incubated at 30° C. for 60 minutes. The reaction was stopped with 50 μl of 2% (v/v) H3PO4, plates were aspirated and washed two times with 200 μl 0.9% (w/v) NaCl. Incorporation of ^33Pi (counting of “cpm”) was determined with a microplate scintillation counter.
# The compounds are dissolved to 10 mM in DMSO. Where needed, solutions are sonicated in a bath sonicator.
# Table 4 provides the pIC50 values and % Remaining activity values at two concentrations (1 μM and 0.1 μM) of the compounds according to the invention, obtained using the above mentioned kinase assay.
# Sequence of RIP2 recombinant protein (O43353 whole entry): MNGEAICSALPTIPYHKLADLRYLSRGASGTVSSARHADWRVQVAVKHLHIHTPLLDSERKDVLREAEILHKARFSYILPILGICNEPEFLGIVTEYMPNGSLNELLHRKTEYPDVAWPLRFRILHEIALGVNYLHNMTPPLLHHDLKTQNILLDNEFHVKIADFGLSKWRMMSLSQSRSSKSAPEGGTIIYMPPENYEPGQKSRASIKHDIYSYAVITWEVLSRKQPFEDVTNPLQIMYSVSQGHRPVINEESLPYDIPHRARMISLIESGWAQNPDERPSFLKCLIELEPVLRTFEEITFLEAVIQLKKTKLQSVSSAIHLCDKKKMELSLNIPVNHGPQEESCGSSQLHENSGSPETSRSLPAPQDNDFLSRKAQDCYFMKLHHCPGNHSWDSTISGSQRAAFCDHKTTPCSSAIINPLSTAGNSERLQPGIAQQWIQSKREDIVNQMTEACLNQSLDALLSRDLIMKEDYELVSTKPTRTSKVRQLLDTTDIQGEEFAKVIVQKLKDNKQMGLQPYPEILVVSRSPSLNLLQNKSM
row,remaining activity at 0.1 µM [%],Compound
1,< 50,COCCC(=O)N1CCCN(C)c2cccc(c2)-c2cnn3ccc(nc23)NCC1 [Compound B19]
2,< 50,NC(=O)c1ccc2cc1OCC(=O)NCCCNc1ccn3ncc-2c3n1 [Compound B21]
3,< 50,O=C(CN1CCOCC1)N1CCNc2ccn3ncc(c3n2)-c2cccc(c2)OCC1 [Compound B36]
4,< 50,CN(C)CCN1CCN(C(=O)C2CC2)CCOc2cccc(c2)-c2cnn3ccc1nc23 [Compound B48]
5,< 50,O=C1CCNc2ccn3ncc(c3n2)-c2cc(F)cc(c2)OCCN1 [Compound B74]
6,> 50,CN1CCN(C(=O)C2CC2)CCNc2ccn3ncc(c3n2)-c2cccc(c2)C1 [Compound B76]
7,< 50,CCCCN1CCNc2ccn3ncc(c3n2)-c2cc(F)cc(c2)OCC1 [Compound F81]
8,< 50,Fc1cc2cc(c1)-c1cnn3ccc(nc13)NCCN(C1CCOCC1)CCO2 [Compound F82]
9,< 50,CCC(C)N1CCNc2ccn3ncc(c3n2)-c2cc(F)cc(c2)OCC1 (stereo not shown) [Compound F83]
10,< 50,Fc1cc2cc(c1)-c1cnn3ccc(nc13)NCCN(C1CCC3(CC1)OCCO3)CCO2 [Compound F84]
11,< 50,COCCN1CCCNc2ccn3ncc(c3n2)-c2cc(F)cc(c2)OCC1 [Compound F86]
12,< 50,COCCN1CCCOc2cc(F)cc(c2)-c2cnn3ccc(nc23)NCC1 [Compound F87]
13,< 50,COCCN1CCCNc2ccn3ncc(c3n2)-c2cc(Cl)cc(c2)OCC1 [Compound F88]
14,< 50,CC1(C)CCCC(N2CCNc3ccn4ncc(c4n3)-c3cc(F)cc(c3)OCC2)C1 (stereo not shown) [Compound F89]
15,< 50,NC(=O)c1cc2cc(c1)-c1cnn3ccc(nc13)NCCN(C1COC1)CCO2 [Compound F91]
16,< 50,CCCCN1CCNc2ccn3ncc(c3n2)-c2cc(cc(C(N)=O)c2)OCC1 [Compound F92]
17,> 50,CC1CNc2ccn3ncc(c3n2)-c2cccc(c2)OCC(=O)N1 (stereo not shown) [Compound F105]

# Same assay, conditions: 1 h; compound at 1 μM
row,remaining activity at 1 µM [%],Compound
1,< 50,COCCC(=O)N1CCCN(C)c2cccc(c2)-c2cnn3ccc(nc23)NCC1 [Compound B19]
2,< 50,NC(=O)c1ccc2cc1OCC(=O)NCCCNc1ccn3ncc-2c3n1 [Compound B21]
3,< 50,O=C(CN1CCOCC1)N1CCNc2ccn3ncc(c3n2)-c2cccc(c2)OCC1 [Compound B36]
4,< 50,CN(C)CCN1CCN(C(=O)C2CC2)CCOc2cccc(c2)-c2cnn3ccc1nc23 [Compound B48]
5,< 50,O=C1CCNc2ccn3ncc(c3n2)-c2cc(F)cc(c2)OCCN1 [Compound B74]
6,< 50,CN1CCN(C(=O)C2CC2)CCNc2ccn3ncc(c3n2)-c2cccc(c2)C1 [Compound B76]
7,< 50,CCCCN1CCNc2ccn3ncc(c3n2)-c2cc(F)cc(c2)OCC1 [Compound F81]
8,< 50,Fc1cc2cc(c1)-c1cnn3ccc(nc13)NCCN(C1CCOCC1)CCO2 [Compound F82]
9,< 50,CCC(C)N1CCNc2ccn3ncc(c3n2)-c2cc(F)cc(c2)OCC1 (stereo not shown) [Compound F83]
10,< 50,Fc1cc2cc(c1)-c1cnn3ccc(nc13)NCCN(C1CCC3(CC1)OCCO3)CCO2 [Compound F84]
11,< 50,COCCN1CCCNc2ccn3ncc(c3n2)-c2cc(F)cc(c2)OCC1 [Compound F86]
12,< 50,COCCN1CCCOc2cc(F)cc(c2)-c2cnn3ccc(nc23)NCC1 [Compound F87]
13,< 50,COCCN1CCCNc2ccn3ncc(c3n2)-c2cc(Cl)cc(c2)OCC1 [Compound F88]
14,< 50,CC1(C)CCCC(N2CCNc3ccn4ncc(c4n3)-c3cc(F)cc(c3)OCC2)C1 (stereo not shown) [Compound F89]
15,< 50,NC(=O)c1cc2cc(c1)-c1cnn3ccc(nc13)NCCN(C1COC1)CCO2 [Compound F91]
16,< 50,CCCCN1CCNc2ccn3ncc(c3n2)-c2cc(cc(C(N)=O)c2)OCC1 [Compound F92]
17,< 50,CC1CNc2ccn3ncc(c3n2)-c2cccc(c2)OCC(=O)N1 (stereo not shown) [Compound F105]

# Same assay, conditions: ATP 3.0 μM, RIP2 15.7 nM, substrate RBER-Chktide
row,IC50 [µM],Compound
1,< 0.1,NC(=O)c1ccc2cc1OCC(=O)NCCCNc1ccn3ncc-2c3n1 [Compound B21]
2,< 0.1,O=C(CN1CCOCC1)N1CCNc2ccn3ncc(c3n2)-c2cccc(c2)OCC1 [Compound B36]
3,< 0.1,CN(C)CCN1CCN(C(=O)C2CC2)CCOc2cccc(c2)-c2cnn3ccc1nc23 [Compound B48]
4,0.1 to 1,O=C1CCNc2ccn3ncc(c3n2)-c2cc(F)cc(c2)OCCN1 [Compound B74]
5,0.1 to 1,CN1CCN(C(=O)C2CC2)CCNc2ccn3ncc(c3n2)-c2cccc(c2)C1 [Compound B76]
6,< 0.1,CCCCN1CCNc2ccn3ncc(c3n2)-c2cc(F)cc(c2)OCC1 [Compound F81]
7,< 0.1,Fc1cc2cc(c1)-c1cnn3ccc(nc13)NCCN(C1CCOCC1)CCO2 [Compound F82]
8,< 0.1,CCC(C)N1CCNc2ccn3ncc(c3n2)-c2cc(F)cc(c2)OCC1 (stereo not shown) [Compound F83]
9,0.1 to 1,Fc1cc2cc(c1)-c1cnn3ccc(nc13)NCCN(C1CCC3(CC1)OCCO3)CCO2 [Compound F84]
10,< 0.1,COCCN1CCCNc2ccn3ncc(c3n2)-c2cc(F)cc(c2)OCC1 [Compound F86]
11,< 0.1,COCCN1CCCOc2cc(F)cc(c2)-c2cnn3ccc(nc23)NCC1 [Compound F87]
12,< 0.1,COCCN1CCCNc2ccn3ncc(c3n2)-c2cc(Cl)cc(c2)OCC1 [Compound F88]
13,0.1 to 1,CC1(C)CCCC(N2CCNc3ccn4ncc(c4n3)-c3cc(F)cc(c3)OCC2)C1 (stereo not shown) [Compound F89]
14,< 0.1,NC(=O)c1cc2cc(c1)-c1cnn3ccc(nc13)NCCN(C1COC1)CCO2 [Compound F91]
15,< 0.1,CCCCN1CCNc2ccn3ncc(c3n2)-c2cc(cc(C(N)=O)c2)OCC1 [Compound F92]
16,0.1 to 1,CC1CNc2ccn3ncc(c3n2)-c2cccc(c2)OCC(=O)N1 (stereo not shown) [Compound F105]
17,0.1 to 1,O=C1COc2cncc(c2)-c2cnn3ccc(nc23)NCCCN1 [Compound F106]
18,0.1 to 1,CC1CNCCOc2cccc(c2)-c2cnn3ccc(nc23)N1 (stereo not shown) [Compound F108]
